Experimental data as given in patent US20030119904A1, “Acetyl L-carnitine salt with a dicarboxilic organic acid and process for preparing same” (priority 2001, published 2003).
Structures can show the parent of a compound that is named as a salt.

Experiments:
[1] = Hygroscopicity: exposure of powder or granules to relative humidity at 25° C. for 24 hours; assay type: physicochemical
Method: By “hygroscopic” is meant herein the bothersome property shown by most of L-carnitine and alkanoyl L-carnitine salts (particularly by their “inner salts”) to undergo, when they occur as powders or granules, significant alteration of their flowability due to their clotting, agglomeration or even deliquescence, following exposure to an environment of relative humidity […] 50-60%, at 25° C., for 24 hours.

[2] = known from prior art / marketed product; cited from earlier work

Compound	hygroscopicity of the isolated solid ([1]; non-hygroscopic = withstands relative humidity of at least 60%, as powder or granules, without clotting, agglomeration or deliquescence)	relative humidity withstood without loss of flowability ([1]; powder or granules) [%]	hygroscopicity (prior art statement) [2]
CC(=O)O[C@H](CC(=O)O)C[N+](C)(C)C.O=C([O-])/C=C/C(=O)O [ALCFH, acetyl L-carnitine acid fumarate]	non-hygroscopic	≥ 60	–
C[N+](C)(C)C[C@H](O)CC(=O)O.O=C([O-])/C=C/C(=O)O [L-carnitine acid fumarate]	–	–	non-hygroscopic
CC(=O)O[C@H](CC(=O)[O-])C[N+](C)(C)C [acetyl L-carnitine inner salt]	–	–	high hygroscopicity
